Results published in patent US10596291B2, “Effective anti-bacteria and anti-viral air treatment device” (KONINKLIJKE PHILIPS N.V., priority 2014, dated 2020).
Read-outs that look alike come from different tables or passages of the source.

Assay: Particle generation and ozone consumption by type of terpene in 26.5 m^3 test chamber
Assay type: physicochemical
Description: Some further measurements were done with setups as describe above. Data in relation to particle generation and ozone consumption as function of type of terpene were determined. […] It is clear that e.g. eucalyptol and thymol is most desired amongst these four options.

[1] = terpene approx. 1 mg/m^3, 26.5 m^3 test chamber, initial ozone 100 ppb
[2] = terpene concentration 1 mg/m^3, 26.5 m^3 test chamber, initial ozone 100 ppb

Compound | Particle yield | average O3 consumption [%] | Particle yield [1] | average O3 consumption [2] [%]
Cc1ccc(C(C)C)cc1O [Carvacrol] | 851.8 10^6/mol | 0 | – | –
CC12CCC(CC1)C(C)(C)O2 [Eucalyptol, Eucalyptol (1,8-cineol)] | – | – | 779.9 10^6/mol | 2
C=CCc1ccc(O)c(OC)c1 [Eugenol] | – | – | 18742.9 10^6/mol | 15
CC(C)=CCC/C(C)=C/CO [Geraniol] | – | – | 57608.1 10^6/mol | 54
C=C(C)[C@H]1CC=C(C)CC1 [Limonene] | – | – | 94003.4 10^6/mol | 31
C=CC(C)(O)CCC=C(C)C (stereo not shown) [Linalool] | – | – | 76911.2 10^6/mol | 44
Cc1ccc(C(C)C)c(O)c1 [Thymol] | – | – | 498.2 10^6/mol | 2
y-terpinene | 112499.9 10^6/mol | 19 | – | –
